Source: paper PMC7180572, “5-Alkylamino-N-phenylpyrazine-2-carboxamides: Design, Preparation, and Antimycobacterial Evaluation” (Molecules, 2020)
≈ marks a conversion by molar mass, not a printed value. Where two headings read alike, the source gives them in different places.

Columns and labels:
[1] = tested on: Pseudomonas aeruginosa ATCC 27853, CCM 3955; test: Antibacterial microdilution broth method (EUCAST); type: cell-based; conditions: read-out: MIC PA
[2] = tested on: Acinetobacter baumanii ATCC 19606, DSM 30007; test: Antibacterial microdilution broth method (EUCAST); type: cell-based; conditions: Acinetobacter baumannii
[3] = tested on: Absidia corymbifera CCM 8077 (Lichtheimia corymbifera); test: Antifungal microdilution broth method (EUCAST); type: cell-based; conditions: read-out: MIC AC
[4] = tested on: Trichophyton interdigitale ATCC 9533, CCM 8377; test: Antifungal microdilution broth method (EUCAST); type: cell-based; conditions: read-out: MIC TI
[5] = tested on: Escherichia coli ATCC 25922, CCM 3954; test: Antibacterial microdilution broth method (EUCAST); type: cell-based; conditions: read-out: MIC EC
[6] = tested on: HepG2 cells; test: HepG2 cytotoxicity, CellTiter 96 (MTS) assay; type: cell-based, human; conditions: for IC50: Homo sapiens, HepG2, 24 h, read-out: HepG2 IC50; for SI, selectivity index: IC50 (HepG2)/MIC against Mtb H37Ra (in µM)
[7] = tested on: Staphylococcus aureus methicillin resistant ATCC 43300, CCM 4750; test: microbe, parasite or virus in culture; type: cell-based; conditions: ATCC 43300 / CCM 4750 / MRSA, read-out: MIC MRSA
[8] = tested on: Candida parapsilosis ATCC 22019, CCM 8260; test: Antifungal microdilution broth method (EUCAST); type: cell-based; conditions: Lodderomyces parapsilosis
[9] = tested on: Klebsiella pneumoniae ATCC 10031, CCM 4415; test: Antibacterial microdilution broth method (EUCAST)
[10] = tested on: Enterococcus faecalis ATCC 29212, CCM 4224; test: Antibacterial microdilution broth method (EUCAST); type: cell-based; conditions: read-out: MIC EF
[11] = tested on: Aspergillus flavus CCM 8363; test: Antifungal microdilution broth method (EUCAST); type: cell-based; conditions: read-out: MIC AFla
[12] = tested on: Candida tropicalis ATCC 750, CCM 8264; test: Antifungal microdilution broth method (EUCAST); type: cell-based; conditions: read-out: MIC CT
[13] = tested on: Mycobacterium tuberculosis H37Ra ITM-M006710 (ATCC 9431); test: Microdilution broth, modified Microplate Alamar Blue Assay, whole cell growth inhibition; type: cell-based; conditions: Mycobacterium tuberculosis; in vitro, Middlebrook 7H9 broth, resazurin; read-out: MIC Mtb H37Ra
[14] = tested on: Candida albicans ATCC 24433, CCM 8320; test: Antifungal microdilution broth method (EUCAST); type: cell-based
[15] = tested on: Aspergillus fumigatus ATCC 204305; test: Antifungal microdilution broth method (EUCAST); type: cell-based; conditions: read-out: MIC AF
[16] = tested on: Mycobacterium smegmatis DSM 43465 (ATCC 607); test: Microdilution broth, modified Microplate Alamar Blue Assay, whole cell growth inhibition; type: cell-based; conditions: Mycolicibacterium smegmatis, read-out: MIC Mycobacterium smegmatis
[17] = tested on: Staphylococcus aureus spp.aureus ATCC 29213, CCM 4223; test: Antibacterial microdilution broth method (EUCAST); type: cell-based; conditions: read-out: MIC SA
[18] = tested on: Staphylococcus epidermidis ATCC 12228, CCM 4418; test: Antibacterial microdilution broth method (EUCAST); type: cell-based; conditions: read-out: MIC SE
[19] = tested on: Candida krusei ATCC 6258, CCM 8271; test: Antifungal microdilution broth method (EUCAST); type: cell-based; conditions: Pichia kudriavzevii
[20] = tested on: Mycobacterium aurum DSM 43999 (ATCC 23366); test: Microdilution broth, modified Microplate Alamar Blue Assay, whole cell growth inhibition; type: cell-based; conditions: Mycolicibacterium aurum, read-out: MIC Mycobacterium aurum

Compound: CCCCCCCNc1cnc(C(=O)Nc2cccc(C(F)(F)F)c2)cn1 [Compound 1e, 5-(Heptylamino)-N-(3-(trifluoromethyl)phenyl)pyrazine-2-carboxamide]
- MIC ([1]; 72 h): > 500 µM
- MIC ([1]; 120 h): > 500 µM
- MIC ([2]; 24h): > 500 µM
- MIC ([2]; 48h): > 500 µM
- MIC ([3]; CCM8077, 24 h): > 500 µM
- MIC ([3]; CCM8077, 48 h): > 500 µM
- MIC ([4]; 72 h): > 500 µM
- MIC ([4]; 120 h): > 500 µM
- MIC ([5]; 24 h): > 500 µM
- MIC ([5]; 48 h): > 500 µM
- IC50 [6]: 223 µM
- MIC ([7]; 24 h): > 500 µM
- MIC ([7]; 48 h): > 500 µM
- MIC ([8]; 24 h, read-out: MIC CP): > 500 µM
- MIC ([8]; 48 h, read-out: MIC CP): > 500 µM
- MIC KP ([9]; 24h): > 500 µM
- MIC KP ([9]; 48h): > 500 µM
- MIC ([10]; 24 h): > 500 µM
- MIC ([10]; 48 h): > 500 µM
- MIC ([11]; CCM8363, 24 h): > 500 µM
- MIC ([11]; CCM8363, 48 h): > 500 µM
- MIC ([12]; 24 h): > 500 µM
- MIC ([12]; 48 h): > 500 µM
- MIC [13]: ≥ 500 µg/mL
- MIC ([14]; 24 h, read-out: MIC CA): > 500 µM
- MIC ([14]; 48 h, read-out: MIC CA): > 500 µM
- melting point: 148 to 149 °C
- MIC ([15]; ATCC204305, 24 h): > 500 µM
- MIC ([15]; ATCC204305, 48 h): > 500 µM
- MIC [16]: ≥ 500 µg/mL
- MIC ([17]; 24 h): > 500 µM
- MIC ([17]; 48 h): > 500 µM
- MIC ([18]; 24 h): > 500 µM
- MIC ([18]; 48 h): > 500 µM
- MIC ([19]; 24 h, read-out: MIC CK): > 500 µM
- MIC ([19]; 48 h, read-out: MIC CK): > 500 µM
- MIC [20]: 62.5 µg/mL (≈ 164 µM)

Compound: CCCCCCCCNc1cnc(C(=O)Nc2cccc(C(F)(F)F)c2)cn1 [Compound 1f, 5-(Octylamino)-N-(3-(trifluoromethyl)phenyl)pyrazine-2-carboxamide]
- MIC ([1]; 72 h): > 500 µM
- MIC ([1]; 120 h): > 500 µM
- MIC ([2]; 24h): > 500 µM
- MIC ([2]; 48h): > 500 µM
- MIC ([3]; CCM8077, 24 h): > 500 µM
- MIC ([3]; CCM8077, 48 h): > 500 µM
- MIC ([4]; 72 h): > 500 µM
- MIC ([4]; 120 h): > 500 µM
- MIC ([5]; 24 h): > 500 µM
- MIC ([5]; 48 h): > 500 µM
- IC50 [6]: 66.2 µM
- MIC ([7]; 24 h): > 500 µM
- MIC ([7]; 48 h): > 500 µM
- MIC ([8]; 24 h, read-out: MIC CP): > 500 µM
- MIC ([8]; 48 h, read-out: MIC CP): > 500 µM
- MIC KP ([9]; 24h): > 500 µM
- MIC KP ([9]; 48h): > 500 µM
- MIC ([10]; 24 h): > 500 µM
- MIC ([10]; 48 h): > 500 µM
- MIC ([11]; CCM8363, 24 h): > 500 µM
- MIC ([11]; CCM8363, 48 h): > 500 µM
- MIC ([12]; 24 h): > 500 µM
- MIC ([12]; 48 h): > 500 µM
- MIC [13]: ≥ 500 µg/mL
- MIC ([14]; 24 h, read-out: MIC CA): > 500 µM
- MIC ([14]; 48 h, read-out: MIC CA): > 500 µM
- melting point: 135 to 136 °C
- MIC ([15]; ATCC204305, 24 h): > 500 µM
- MIC ([15]; ATCC204305, 48 h): > 500 µM
- MIC [16]: ≥ 500 µg/mL
- MIC ([17]; 24 h): > 500 µM
- MIC ([17]; 48 h): > 500 µM
- MIC ([18]; 24 h): > 500 µM
- MIC ([18]; 48 h): > 500 µM
- MIC ([19]; 24 h, read-out: MIC CK): > 500 µM
- MIC ([19]; 48 h, read-out: MIC CK): > 500 µM
- MIC [20]: ≥ 500 µg/mL

Compound: CCCNc1cnc(C(=O)Nc2cccc(O)c2)cn1 [Compound 2a, N-(3-hydroxyphenyl)-5-(propylamino)pyrazine-2-carboxamide]
- MIC ([1]; 72 h): > 125 µM
- MIC ([1]; 120 h): > 125 µM
- MIC ([2]; 24h): > 125 µM
- MIC ([2]; 48h): > 125 µM
- MIC ([3]; CCM8077, 24 h): > 125 µM
- MIC ([3]; CCM8077, 48 h): > 125 µM
- MIC ([4]; 72 h): > 125 µM
- MIC ([4]; 120 h): > 125 µM
- MIC ([5]; 24 h): > 125 µM
- MIC ([5]; 48 h): > 125 µM
- IC50 [6]: > 100 µM
- SI, selectivity index [6]: >3.5
- MIC ([7]; 24 h): > 125 µM
- MIC ([7]; 48 h): > 125 µM
- MIC ([8]; 24 h, read-out: MIC CP): > 125 µM
- MIC ([8]; 48 h, read-out: MIC CP): > 125 µM
- MIC ([8]; read-out: MIC CP (Candida parapsilosis)): > 125 µM
- MIC KP ([9]; 24h): > 125 µM
- MIC KP ([9]; 48h): > 125 µM
- MIC ([10]; 24 h): > 125 µM
- MIC ([10]; 48 h): > 125 µM
- MIC ([11]; CCM8363, 24 h): > 125 µM
- MIC ([11]; CCM8363, 48 h): > 125 µM
- MIC ([12]; 24 h): > 125 µM
- MIC ([12]; 48 h): > 125 µM
- MIC [13]: 7.81 µg/mL (≈ 28.7 µM)
- MIC ([14]; 24 h, read-out: MIC CA): > 125 µM
- MIC ([14]; 48 h, read-out: MIC CA): > 125 µM
- MIC ([14]; read-out: MIC CA (Candida albicans)): > 125 µM
- melting point: 194 to 195 °C
- MIC ([15]; ATCC204305, 24 h): > 125 µM
- MIC ([15]; ATCC204305, 48 h): > 125 µM
- MIC [16]: ≥ 500 µg/mL
- MIC ([17]; 24 h): > 125 µM
- MIC ([17]; 48 h): > 125 µM
- MIC ([18]; 24 h): > 125 µM
- MIC ([18]; 48 h): > 125 µM
- MIC ([19]; 24 h, read-out: MIC CK): 62.5 µM (≈ 17 µg/mL)
- MIC ([19]; 48 h, read-out: MIC CK): 62.5 µM (≈ 17 µg/mL)
- MIC ([19]; read-out: MIC CK (Candida krusei)): 62.5 µM (≈ 17 µg/mL)
- MIC [20]: ≥ 500 µg/mL

Compound: CCCCNc1cnc(C(=O)Nc2cccc(O)c2)cn1 [Compound 2b, 5-(Butylamino)pyrazine-N-(3-hydroxyphenyl)-2-carboxamide]
- MIC ([1]; 72 h): > 500 µM
- MIC ([1]; 120 h): > 500 µM
- MIC ([2]; 24h): > 500 µM
- MIC ([2]; 48h): > 500 µM
- MIC ([3]; CCM8077, 24 h): > 125 µM
- MIC ([3]; CCM8077, 48 h): > 125 µM
- MIC ([4]; 72 h): > 125 µM
- MIC ([4]; 120 h): > 125 µM
- MIC ([5]; 24 h): > 500 µM
- MIC ([5]; 48 h): > 500 µM
- IC50 [6]: > 25 µM
- SI, selectivity index [6]: >0.92
- MIC ([7]; 24 h): > 500 µM
- MIC ([7]; 48 h): > 500 µM
- MIC ([8]; 24 h, read-out: MIC CP): > 125 µM
- MIC ([8]; 48 h, read-out: MIC CP): > 125 µM
- MIC KP ([9]; 24h): > 500 µM
- MIC KP ([9]; 48h): > 500 µM
- MIC ([10]; 24 h): > 500 µM
- MIC ([10]; 48 h): > 500 µM
- MIC ([11]; CCM8363, 24 h): > 125 µM
- MIC ([11]; CCM8363, 48 h): > 125 µM
- MIC ([12]; 24 h): > 125 µM
- MIC ([12]; 48 h): > 125 µM
- MIC [13]: 7.81 µg/mL (≈ 27.3 µM)
- MIC ([14]; 24 h, read-out: MIC CA): > 125 µM
- MIC ([14]; 48 h, read-out: MIC CA): > 125 µM
- melting point: 203 to 204 °C
- MIC ([15]; ATCC204305, 24 h): > 125 µM
- MIC ([15]; ATCC204305, 48 h): > 125 µM
- MIC [16]: ≥ 500 µg/mL
- MIC ([17]; 24 h): > 500 µM
- MIC ([17]; 48 h): > 500 µM
- MIC ([18]; 24 h): > 500 µM
- MIC ([18]; 48 h): > 500 µM
- MIC ([19]; 24 h, read-out: MIC CK): > 125 µM
- MIC ([19]; 48 h, read-out: MIC CK): > 125 µM
- MIC [20]: ≥ 500 µg/mL
